Where “and” joins values, the source holds several entries; their conditions need not be identical. Equal values may be shown once. Read-outs that look alike come from different tables or passages of the source.
Tested on: mtrC-lacZ expression
Assay type: cell-based, Neisseria gonorrhoeae
Conditions: for Miller units, Mean: mtrCDE, ΔmtrR, left block Plate-4; for β-galactosidase activity, Miller units (single replicate) / β-galactosidase activity, individual replicate: mtrR WT in cis; for β-galactosidase activity, individual replicate: single replicate values, second (right) block; for Miller units: single well; for mtrC-lacZ β-galactosidase activity, Mean: left block of sheet (mtrCDE)
[1] = second block of sheet (c39-c76), ΔmtrR + mtrR R176E in trans, 6.25 µM
[2] = second block of sheet (c39-c76), ΔmtrR + mtrR R176E in trans, 12.5 µM
[3] = second block of sheet (c39-c76), ΔmtrR + mtrR R176E in trans, 25 µM
[4] = second block of sheet (c39-c76), ΔmtrR + mtrR R176E in trans, 50 µM

For `C[C@]12CC[C@H]3[C@@H](CCC4=CC(=O)CC[C@@]43C)[C@@H]1CC[C@@H]2O` [Testosterone, testosterone], the “Miller units, Mean” value (testosterone 50 µM) was 284 Miller units, the “Miller units, Mean” value (testosterone 100 µM) was 369 Miller units and the “β-galactosidase activity, Miller units (single replicate)” value (from here on “β-galactosidase activity, Miller units”) (1 µM, first data set (c15-c36)) was 149 Miller units and 125 Miller units and 138 Miller units and 141 Miller units. For the same molecule, the “β-galactosidase activity, individual replicate” value (6.25 µM hormone) was 103 Miller units and 88 Miller units, the “β-galactosidase activity, Miller units” value (6.25 µM, second data set (c53-c74)) was 73 Miller units and 58 Miller units and the “β-galactosidase activity, Miller units” value (10 µM, first data set (c15-c36)) was 251 Miller units and 213 Miller units and 245 Miller units and 230 Miller units. For the same molecule, the “β-galactosidase activity, individual replicate” value (12.5 µM hormone) was 126 Miller units, the “β-galactosidase activity, Miller units” value (12.5 µM, second data set (c53-c74)) was 92 Miller units and 94 Miller units and the “β-galactosidase activity, individual replicate” value (25 µM hormone) was 144 Miller units and 138 Miller units. For the same molecule, the “β-galactosidase activity, Miller units” value (25 µM, first data set (c15-c36)) was 283 Miller units and 251 Miller units and 242 Miller units and 281 Miller units, the “β-galactosidase activity, Miller units” value (25 µM, second data set (c53-c74)) was 129 Miller units and 111 Miller units and the “β-galactosidase activity, individual replicate” value (50 µM hormone) was 161 Miller units and 150 Miller units. For the same molecule, the “β-galactosidase activity, Miller units” value (50 µM, first data set (c15-c36)) was 237 Miller units and 229 Miller units and 224 Miller units and 225 Miller units, the “β-galactosidase activity, Miller units” value (50 µM, second data set (c53-c74)) was 118 Miller units and 110 Miller units and the “β-galactosidase activity, Miller units” value (100 µM, first data set (c15-c36)) was 228 Miller units and 230 Miller units and 281 Miller units and 254 Miller units. For the same molecule, the “β-galactosidase activity, Mean” value [1] was 60 Miller units, the “β-galactosidase activity, single replicate” value [1] was 66 Miller units and 62 Miller units and 61 Miller units and 50 Miller units and the “β-galactosidase activity, Mean” value [2] was 68 Miller units. For the same molecule, the “β-galactosidase activity, single replicate” value [2] was 65 Miller units and 76 Miller units and 70 Miller units and 59 Miller units, the “β-galactosidase activity, Mean” value [3] was 80 Miller units and the “β-galactosidase activity, single replicate” value [3] was 70 Miller units and 77 Miller units and 92 Miller units and 80 Miller units. The “β-galactosidase activity, Mean” value [4] was 83 Miller units, the “β-galactosidase activity, single replicate” value [4] was 89 Miller units and 78 Miller units and 94 Miller units and 70 Miller units and the Miller units (plate rows 1-4, plate columns 1-6 (first strain), 6.25 µM hormone) was 96 Miller units and 59 Miller units and 65 Miller units and 57 Miller units. For the same molecule, the Miller units (plate rows 1-4, plate columns 1-6 (first strain), 12.5 µM hormone) was 116 Miller units and 66 Miller units and 73 Miller units and 70 Miller units, the Miller units (plate rows 1-4, plate columns 1-6 (first strain), 25 µM hormone) was 132 Miller units and 102 Miller units and 83 Miller units and 75 Miller units and the Miller units (plate rows 1-4, plate columns 1-6 (first strain), 50 µM hormone) was 147 Miller units and 111 Miller units and 107 Miller units and 103 Miller units. The Miller units (plate rows 1-4, plate columns 7-12 (second strain), 6.25 µM hormone) was 119 Miller units and 100 Miller units and 89 Miller units and 76 Miller units, the Miller units (plate rows 1-4, plate columns 7-12 (second strain), 12.5 µM hormone) was 126 Miller units and 101 Miller units and 100 Miller units and 81 Miller units and the Miller units (plate rows 1-4, plate columns 7-12 (second strain), 25 µM hormone) was 155 Miller units and 122 Miller units and 93 Miller units and 79 Miller units. The Miller units (plate rows 1-4, plate columns 7-12 (second strain), 50 µM hormone) was 151 Miller units and 132 Miller units and 101 Miller units and 93 Miller units, the “β-galactosidase activity, mtrC-lacZ, Mean” value (strain WT (FA19/pLES94-mtrC), hormone 6.25 µM) was 141 Miller units and the “β-galactosidase activity, mtrC-lacZ, Mean” value (strain WT (FA19/pLES94-mtrC), hormone 12.5 µM) was 166 Miller units. The “β-galactosidase activity, mtrC-lacZ, Mean” value (strain WT (FA19/pLES94-mtrC), hormone 25 µM) was 178 Miller units, the “β-galactosidase activity, mtrC-lacZ, Mean” value (strain WT (FA19/pLES94-mtrC), hormone 50 µM) was 195 Miller units and the “mtrC-lacZ β-galactosidase activity, Mean” value (strain WT, 1 µM hormone) was 138 Miller units. The “β-galactosidase activity, Mean” value (strain WT, 6.25 µM hormone, second (right) untitled block of sheet Figure S10 (mtrC)) was 81 Miller units, the “mtrC-lacZ β-galactosidase activity, Mean” value (strain WT, 10 µM hormone) was 235 Miller units and the “mtrC-lacZ β-galactosidase activity, Mean” value (strain WT, 25 µM hormone) was 264 Miller units. For the same molecule, the “β-galactosidase activity, Mean” value (strain WT, 25 µM hormone, second (right) untitled block of sheet Figure S10 (mtrC)) was 130 Miller units, the “mtrC-lacZ β-galactosidase activity, Mean” value (strain WT, 50 µM hormone) was 229 Miller units and the “β-galactosidase activity, Mean” value (strain WT, 50 µM hormone, second (right) untitled block of sheet Figure S10 (mtrC)) was 134 Miller units. For the same molecule, the “mtrC-lacZ β-galactosidase activity, Mean” value (strain WT, 100 µM hormone) was 248 Miller units, the “activation of mtrC” value (strain producing MtrR R176E) was “significantly less activation” and the “β-galactosidase activity, mtrC-lacZ, Mean” value (strain ΔmtrR (FA19 ∆mtrR/pLES94-mtrC), hormone 6.25 µM) was 265 Miller units. The “β-galactosidase activity, mtrC-lacZ, Mean” value (strain ΔmtrR (FA19 ∆mtrR/pLES94-mtrC), hormone 12.5 µM) was 244 Miller units, the “β-galactosidase activity, mtrC-lacZ, Mean” value (strain ΔmtrR (FA19 ∆mtrR/pLES94-mtrC), hormone 25 µM) was 276 Miller units and the “β-galactosidase activity, mtrC-lacZ, Mean” value (strain ΔmtrR (FA19 ∆mtrR/pLES94-mtrC), hormone 50 µM) was 272 Miller units. The “β-galactosidase activity, mtrC-lacZ, Mean” value (strain ΔmtrR + mtrR D171A (pGCC3-mtrR D171A), hormone 6.25 µM) was 170 Miller units, the “β-galactosidase activity, mtrC-lacZ, Mean” value (strain ΔmtrR + mtrR D171A (pGCC3-mtrR D171A), hormone 12.5 µM) was 175 Miller units and the “β-galactosidase activity, mtrC-lacZ, Mean” value (strain ΔmtrR + mtrR D171A (pGCC3-mtrR D171A), hormone 25 µM) was 170 Miller units. The “β-galactosidase activity, mtrC-lacZ, Mean” value (strain ΔmtrR + mtrR D171A (pGCC3-mtrR D171A), hormone 50 µM) was 162 Miller units, the “mtrC-lacZ β-galactosidase activity, Mean” value (strain ΔmtrR + mtrR R176E, 1 µM hormone) was 178 Miller units and the “β-galactosidase activity, Mean” value (strain ΔmtrR + mtrR R176E, 6.25 µM hormone, second (right) untitled block of sheet Figure S10 (mtrC)) was 60 Miller units. For the same molecule, the “mtrC-lacZ β-galactosidase activity, Mean” value (strain ΔmtrR + mtrR R176E, 10 µM hormone) was 206 Miller units, the “β-galactosidase activity, Mean” value (strain ΔmtrR + mtrR R176E, 12.5 µM hormone, second (right) untitled block of sheet Figure S10 (mtrC)) was 68 Miller units and the “β-galactosidase activity, Mean” value (strain ΔmtrR + mtrR R176E, 25 µM hormone, second (right) untitled block of sheet Figure S10 (mtrC)) was 80 Miller units.

From paper PMC10850145, “Hormonal steroids induce multidrug resistance and stress response genes in Neisseria gonorrhoeae by binding to MtrR” (Nature Communications, 2024)
